Results on five compounds are retold here after PMC8498988, “Scaffold Hybridization Strategy Leads to the Discovery of Dopamine D3 Receptor-Selective or Multitarget Bitopic Ligands Potentially Useful for Central Nervous System Disorders” (ACS Chemical Neuroscience, 2021).

Structures can show the parent of a compound that is named as a salt. Where two headings read alike, the source gives them in different places. Marks after values point to notes of the source that are not given here.

One data set addresses T1, human D1R (Homo sapiens, UniProt P21728).
T1 construct: expressed in transfected cells; host or cells: mouse fibroblast cells (LhD1)
As to conditions: human cloned receptor; read-out: Ki ± SEM, D1R; cited from earlier work.

Data set [1] addresses T2, D3R (Homo sapiens, UniProt P35462). More on the design: expressed in transfected cells; host or cells: HEK293. As to conditions: cited from earlier work; for D2/D3: ratio of Ki values D2R/D3R; for D4/D3: ratio of Ki values D4R/D3R.
The target in another data set is T3, human 5-HT1AR (Homo sapiens, UniProt P08908).
T3 construct: expressed in transfected cells; host or cells: HeLa
T3 sequence (P08908 1-422): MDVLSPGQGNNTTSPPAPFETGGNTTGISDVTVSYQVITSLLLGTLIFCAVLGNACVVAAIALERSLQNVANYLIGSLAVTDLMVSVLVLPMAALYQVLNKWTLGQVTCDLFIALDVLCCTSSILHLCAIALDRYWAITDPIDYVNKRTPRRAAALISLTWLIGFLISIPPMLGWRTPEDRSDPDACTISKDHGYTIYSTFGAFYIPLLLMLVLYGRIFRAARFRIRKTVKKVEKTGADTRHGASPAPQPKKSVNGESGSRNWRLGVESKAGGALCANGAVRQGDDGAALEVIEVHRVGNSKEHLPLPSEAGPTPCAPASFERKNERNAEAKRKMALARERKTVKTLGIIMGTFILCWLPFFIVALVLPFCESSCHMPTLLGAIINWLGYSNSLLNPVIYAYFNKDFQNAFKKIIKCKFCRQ
To be noted: human cloned receptor; read-out: Ki ± SEM, 5-HT1AR; cited from earlier work.

Data set [2] has as its target T2, D3R. The data set is described as follows: Radioligand competition binding at human D3R ([3H]N-methylspiperone, HEK293 membranes). More on the design: expressed in transfected cells; host or cells: HEK293. On the procedure:
The novel hybrid derivatives 3–11 were tested at hD2R, hD3R, or hD4R stably expressed in HEK293 cells by competition binding assays, using [^3H]N-methylspiperone as the radioligand, to evaluate their D2-like affinity and subtype selectivity, following the previously reported procedures.[41],[45],[46]
Binding at dopamine D2-like receptors was determined using previously described methods.[41],[45],[46] Membranes were prepared from HEK293 cells stably expressing human D2, D3, or D4, grown in a 50:50 mix of Dulbecco’s minimal essential medium (DMEM) and Ham’s F12 culture media, supplemented with 20 mM HEPES, 2 mM L-glutamine, 0.1 mM nonessential amino acids, 1× antibiotic/antimycotic, 10% heat-inactivated fetal bovine serum, and 200 μg/mL hygromycin (Life Technologies, Grand Island, NY) and kept in an incubator at 37 °C and 5% CO2. Upon reaching 80–90% confluency, the cells were harvested using premixed Earle’s Balanced Salt Solution (EBSS) with 5 μM EDTA (Life Technologies) and centrifuged at 3000 rpm for 10 min at 21 °C. The supernatant was removed, and the pellet was resuspended in 10 mL hypotonic lysis buffer (5 mM MgCl2, 5 mM Tris, pH 7.4 at 4 °C) and centrifuged at 20,000 rpm for 30 min at 4 °C. The pellet was then resuspended in fresh EBSS buffer made from 8.7 g/L Earle’s Balanced Salts without phenol red (US Biological, Salem, MA), 2.2 g/L sodium bicarbonate, pH to 7.4. A Bradford protein assay (Bio-Rad, Hercules, CA) was used to determine the protein concentration, and membranes were diluted to 500 μg/mL and stored at −80 °C for later use. Radioligand competition binding experiments were conducted using thawed membranes. Test compounds were freshly dissolved in 30% DMSO and 70% H2O to a stock concentration of 100 μM. To assist the solubilization of free-base compounds, 10 μL of glacial acetic acid was added along with DMSO. Each test compound was then diluted into 13 half-log serial dilutions using 30% DMSO vehicle; the final test concentrations ranged from 10 μM to 10 pM. The previously frozen membranes were diluted in fresh EBSS to a 100 μg/mL (for D2 or D3) or 200 μg/mL (D4) stock for binding. Radioligand competition experiments were conducted in glass tubes containing 300 μL of fresh EBSS buffer, 50 μL of diluted test compound, 100 μL of membranes (10 μg of total protein for D2 or D3 and 20 μg of total protein for D4), and 50 μL of [^3H]N-methylspiperone (0.4 nM final concentration; PerkinElmer). Nonspecific binding was determined using 10 μM butaclamol (Sigma-Aldrich, St. Louis, MO), and total binding was determined with the 30% DMSO vehicle. All compound dilutions were tested in triplicate and the reaction was incubated for 1 h at room temperature. The reaction was terminated by filtration through Whatman GF/B filters, presoaked for 1 h in 0.5% polyethylenimine, using a Brandel R48 filtering manifold (Brandel Instruments, Gaithersburg, MD). The filters were washed three times with 3 mL of ice-cold EBSS buffer and transferred to scintillation vials. CytoScint liquid scintillation cocktail (3 mL, MP Biomedicals, Solon, OH) was added, and vials were counted using a PerkinElmer Tri-Carb 2910 TR liquid scintillation counter (Waltham, MA).

For another data set, the target named is D2R (Homo sapiens, UniProt P14416). More on the design: expressed in transfected cells; host or cells: HEK293. To be noted: human cloned receptor; read-out: Ki ± SEM, D2R; cited from earlier work.
The target of a further data set is 5-HT2AR (Homo sapiens, UniProt P28223). Also noted: expressed in transfected cells; host or cells: HEK (HEK-h5HT2A). To be noted: human cloned receptor; read-out: Ki ± SEM, 5-HT2AR; cited from earlier work.
Another data set concerns the target T4, 5-HT2CR (Homo sapiens, UniProt P28335).
T4 sequence (P28335 33-458): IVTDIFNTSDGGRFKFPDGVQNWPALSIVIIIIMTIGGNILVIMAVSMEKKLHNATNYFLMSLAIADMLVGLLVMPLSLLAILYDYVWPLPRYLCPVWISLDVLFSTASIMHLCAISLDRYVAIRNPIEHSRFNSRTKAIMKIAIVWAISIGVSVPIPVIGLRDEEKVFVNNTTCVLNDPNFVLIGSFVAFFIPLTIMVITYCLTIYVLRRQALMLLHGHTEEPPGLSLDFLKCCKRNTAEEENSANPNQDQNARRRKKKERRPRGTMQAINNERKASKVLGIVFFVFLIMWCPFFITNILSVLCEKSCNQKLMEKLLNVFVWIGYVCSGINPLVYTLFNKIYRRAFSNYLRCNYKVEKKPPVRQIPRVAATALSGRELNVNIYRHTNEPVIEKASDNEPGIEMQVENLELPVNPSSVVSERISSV
More on the design: expressed in transfected cells; host or cells: HEK (HEK-h5HT2C). As to conditions: human cloned receptor; read-out: Ki ± SEM, 5-HT2CR; cited from earlier work.

T2 sequence (P35462 whole entry): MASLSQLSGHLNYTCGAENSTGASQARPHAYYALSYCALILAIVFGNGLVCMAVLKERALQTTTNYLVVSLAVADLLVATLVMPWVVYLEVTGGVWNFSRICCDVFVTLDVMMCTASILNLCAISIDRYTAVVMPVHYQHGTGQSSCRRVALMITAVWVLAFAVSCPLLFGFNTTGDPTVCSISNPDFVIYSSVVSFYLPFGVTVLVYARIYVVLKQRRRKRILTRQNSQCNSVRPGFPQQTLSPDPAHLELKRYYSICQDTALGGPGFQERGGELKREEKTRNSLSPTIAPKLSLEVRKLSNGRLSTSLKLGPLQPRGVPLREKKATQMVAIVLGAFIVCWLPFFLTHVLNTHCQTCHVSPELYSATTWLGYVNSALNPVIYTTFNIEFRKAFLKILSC
T1 sequence (P21728 whole entry): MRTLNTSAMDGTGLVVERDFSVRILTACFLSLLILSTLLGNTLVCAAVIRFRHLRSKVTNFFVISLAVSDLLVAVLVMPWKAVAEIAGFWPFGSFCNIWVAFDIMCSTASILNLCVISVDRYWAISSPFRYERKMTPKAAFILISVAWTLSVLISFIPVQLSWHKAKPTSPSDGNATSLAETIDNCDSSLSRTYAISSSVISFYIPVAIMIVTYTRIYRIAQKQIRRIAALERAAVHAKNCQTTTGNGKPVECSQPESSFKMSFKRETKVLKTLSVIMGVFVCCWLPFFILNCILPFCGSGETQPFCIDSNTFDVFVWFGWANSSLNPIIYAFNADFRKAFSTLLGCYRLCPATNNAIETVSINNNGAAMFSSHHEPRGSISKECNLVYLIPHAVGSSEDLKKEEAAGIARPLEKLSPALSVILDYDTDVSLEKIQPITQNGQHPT
Sequence of 5-HT2AR (P28223 whole entry): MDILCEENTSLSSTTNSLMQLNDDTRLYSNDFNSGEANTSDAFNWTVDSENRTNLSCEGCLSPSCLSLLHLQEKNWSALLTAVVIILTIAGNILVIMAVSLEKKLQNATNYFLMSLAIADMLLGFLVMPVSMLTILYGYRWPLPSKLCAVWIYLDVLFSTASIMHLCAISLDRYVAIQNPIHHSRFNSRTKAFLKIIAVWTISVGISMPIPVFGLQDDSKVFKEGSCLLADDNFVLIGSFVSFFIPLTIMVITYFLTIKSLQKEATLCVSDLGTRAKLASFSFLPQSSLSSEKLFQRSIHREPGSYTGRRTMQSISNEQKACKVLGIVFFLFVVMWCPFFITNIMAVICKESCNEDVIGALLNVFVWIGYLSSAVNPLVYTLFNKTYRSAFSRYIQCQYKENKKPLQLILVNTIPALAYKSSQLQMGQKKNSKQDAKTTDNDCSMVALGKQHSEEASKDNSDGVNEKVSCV
Sequence of D2R (P14416 whole entry): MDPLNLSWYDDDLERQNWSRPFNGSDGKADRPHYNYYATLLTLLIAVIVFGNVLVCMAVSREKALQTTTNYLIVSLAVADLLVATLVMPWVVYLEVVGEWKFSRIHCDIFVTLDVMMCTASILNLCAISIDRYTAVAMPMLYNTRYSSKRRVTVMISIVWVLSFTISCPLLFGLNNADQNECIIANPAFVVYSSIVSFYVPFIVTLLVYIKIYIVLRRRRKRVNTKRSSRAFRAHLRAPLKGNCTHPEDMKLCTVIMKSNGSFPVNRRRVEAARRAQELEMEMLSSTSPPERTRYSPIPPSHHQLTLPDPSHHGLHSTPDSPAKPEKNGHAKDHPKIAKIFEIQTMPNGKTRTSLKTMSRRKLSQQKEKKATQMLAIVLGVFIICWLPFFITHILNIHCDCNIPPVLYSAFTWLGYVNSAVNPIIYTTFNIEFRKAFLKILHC

A word on the Ki: it is a dissociation constant, usually derived from enzyme kinetics or from competition with a known ligand. For the compound `COc1ccccc1OCCNCC1COCC(c2ccccc2)(c2ccccc2)O1` (centres unmarked) [compound 1], the inhibition constant (Ki) at human D1R is 22.9 ± 3.1 nM.
`Cc1cc2c(s1)Nc1ccccc1N=C2N1CCN(C)CC1` [olanzapine]: on D3R [1], the D2/D3 is 0.62 ^e and the D4/D3 is recorded as 0.51 ^e.
In the case of `CN1CCN(C2=Nc3cc(Cl)ccc3Nc3ccccc32)CC1` [clozapine], at D3R [1], the D2/D3 is 0.62 ^e and the D4/D3 is recorded as 0.21 ^e.
In general, melting point refers to the temperature, or range, at which the solid turns liquid. With `O=C(NCCC(F)CN1CCN(c2cccc(Cl)c2Cl)CC1)C1COC(c2ccccc2)(c2ccccc2)CO1` (centres unmarked) (as salt: oxalate) [compound 8, N-(4-(4-(2,3-Dichlorophenyl)piperazin-1-yl)-3-fluorobutyl)-5,5-diphenyl-1,4-dioxane-2-carboxamide], the melting point was in the range of 126 to 127 °C.
Turning to `Oc1cccc(OCCNCC2COCC(c3ccccc3)(c3ccccc3)O2)c1` (centres unmarked) [compound 2], the inhibition constant Ki on human D1R was 123 ± 11 nM; at human 5-HT1AR it was 1.15 ± 0.03 nM; on D2R it was 3.16 ± 1 nM; at D3R [1] (human cloned receptor, read-out: Ki ± SEM, D3R) it was 1.38 ± 0.07 nM; at 5-HT2AR, 1410 ± 224 nM; at 5-HT2CR, 9770 ± 501 nM. Further, the D2/D3 on D3R [2] (ratio of Ki values D2R/D3R) was 2. Besides, the D4/D3 on D3R [2] (ratio of Ki values D4R/D3R) is 8.
